According to patent US20240066089A1, “ARTOCARPUS HETEROPHYLLUS COMPOSITION AND METHOD OF PROMOTING URINARY TRACT HEALTH” (priority 2022, published 2024):
In brackets after ≈: the same amount, converted by molar mass.

Key:
[1] = test system: testosterone induced BPH model rats; assay: Histopathological examination of prostate tissue of BPH model rats; type: in vivo, Wistar rats; conditions: H&E stained sections
[2] = test system: testosterone induced BPH model rats; assay: Antioxidant activity in prostate tissue of BPH model rats (SOD, catalase, GSH, glutathione reductase); type: in vivo, Wistar rats; conditions: Finasteride 1 mg/kg, in comparison with BPH group (p<0.001)
5-alpha-reductase = assay: In vitro 5-alpha-reductase assay (NADPH absorbance at 340 nm, liver S9 fraction); type: biochemical; conditions: 20 μg liver S9 fraction, 6 minutes at 37° C., Finasteride 20-70 ng/mL
Procedure: In vitro 5-alpha-reductase assay was performed according to Sun et al. (1998) with some modifications. NADPH has characteristic absorbance at 340 nm, and the absorbance spectrum may be used to measure the decline in NADPH concentration as a measure of enzyme activity. Briefly, the reaction mixture contained 40 mM phosphate buffer pH 7.0, 93 μM NADPH, 2.265 μM testosterone and 20 μg liver S9 fraction with or without different concentrations of the extract (2-6 μg/mL) or reference compound Finasteride (20-70 ng/mL), incubated for 6 minutes at 37° C. The absorbance was read at 340 nm in UV-visible spectrophotometer. IC50 values were determined for the extract and Finasteride.

[3] = test system: testosterone induced BPH model rats; assay: Prostate growth in testosterone-induced BPH model rats; type: in vivo, Wistar rats; conditions: 28 days; for Growth inhibition (%): prostate growth, Fina group, 1 mg/kg, mean ± SD n = 6

Question: With CC(C)(C)NC(=O)[C@H]1CC[C@H]2[C@@H]3CC[C@H]4NC(=O)C=C[C@]4(C)[C@H]3CC[C@]12C [Finasteride] as the molecule, how does the “pathological changes (hyperplastic patterns) in prostate tissue” value [1] read?
Answer: not evident

Question: And the SOD activity [2]?
Answer: significantly increased

Question: And the “IC50 value, 5-alpha-reductase activity” value (5-alpha-reductase)?
Answer: 63.2 ng/mL (≈ 0.17 µM)

Question: What about the prostate weights ([3]; in comparison with BPH control (p<0.001)) of the same molecule?
Answer: reduced significantly

Question: What about the “Growth inhibition (%)” value [3] of the same molecule?
Answer: 90.22%

Question: And the “Growth inhibition (%)” value ([3]; listed as Fina)?
Answer: 90.22 ± 10.85%
